Where two headings read alike, the source gives them in different places. Where a SMILES comes first, the peptide text is derived from it. Bridges are numbered along the chain shown (N, C = ends).
Columns and labels:
[1] = molecular target: human (h) Cav2.2 channels in SH-SY5Y cells (Homo sapiens, UniProt Q00975); experiment: cell-based
hNav1.4 = hNav1.4 (Homo sapiens, UniProt P35499); experiment: cell-based; type: cell-based
hNav1.3 = hNav1.3 (Homo sapiens, UniProt Q9NY46); experiment: cell-based
hNav1.7 [2] = molecular target: T1, hNav1.7 (Homo sapiens, UniProt Q15858); experiment: cell-based
hNav1.2 = hNav1.2 (Homo sapiens, UniProt Q99250); experiment: cell-based
hCav3.1 = hCav3.1 (Homo sapiens, UniProt O43497); experiment: cell-based
hCav1.3 = hCav1.3 (Homo sapiens, UniProt Q01668); experiment: cell-based
hNav1.5 = hNav1.5 (Homo sapiens, UniProt Q14524); experiment: cell-based; type: cell-based
hNav1.7 [3] = molecular target: T1, hNav1.7; experiment: cell-based; remark: listed apart in the source
hNav1.6 = hNav1.6 (Homo sapiens, UniProt Q9UQD0); experiment: cell-based; type: cell-based
hNav1.8 = hNav1.8 (Homo sapiens, UniProt Q9Y5Y9); experiment: cell-based
[4] = system: adult sheep blowflies (Lucilia cuprina); details: in vivo
[5] = molecular target: rat (r) Cav2.2 (Cav α1b + Cav β1b + Cav α2δ) (Rattus norvegicus, UniProt Q02294); experiment: cell-based
hNav1.1 = hNav1.1 (Homo sapiens, UniProt P35498); experiment: cell-based
C57BL/6J mice = details: mouse, in vivo
[6] = system: Nav1.7-mediated pain in C57BL/6J mice; details: mouse, in vivo

Chain of hCav1.3 (Q01668 whole entry): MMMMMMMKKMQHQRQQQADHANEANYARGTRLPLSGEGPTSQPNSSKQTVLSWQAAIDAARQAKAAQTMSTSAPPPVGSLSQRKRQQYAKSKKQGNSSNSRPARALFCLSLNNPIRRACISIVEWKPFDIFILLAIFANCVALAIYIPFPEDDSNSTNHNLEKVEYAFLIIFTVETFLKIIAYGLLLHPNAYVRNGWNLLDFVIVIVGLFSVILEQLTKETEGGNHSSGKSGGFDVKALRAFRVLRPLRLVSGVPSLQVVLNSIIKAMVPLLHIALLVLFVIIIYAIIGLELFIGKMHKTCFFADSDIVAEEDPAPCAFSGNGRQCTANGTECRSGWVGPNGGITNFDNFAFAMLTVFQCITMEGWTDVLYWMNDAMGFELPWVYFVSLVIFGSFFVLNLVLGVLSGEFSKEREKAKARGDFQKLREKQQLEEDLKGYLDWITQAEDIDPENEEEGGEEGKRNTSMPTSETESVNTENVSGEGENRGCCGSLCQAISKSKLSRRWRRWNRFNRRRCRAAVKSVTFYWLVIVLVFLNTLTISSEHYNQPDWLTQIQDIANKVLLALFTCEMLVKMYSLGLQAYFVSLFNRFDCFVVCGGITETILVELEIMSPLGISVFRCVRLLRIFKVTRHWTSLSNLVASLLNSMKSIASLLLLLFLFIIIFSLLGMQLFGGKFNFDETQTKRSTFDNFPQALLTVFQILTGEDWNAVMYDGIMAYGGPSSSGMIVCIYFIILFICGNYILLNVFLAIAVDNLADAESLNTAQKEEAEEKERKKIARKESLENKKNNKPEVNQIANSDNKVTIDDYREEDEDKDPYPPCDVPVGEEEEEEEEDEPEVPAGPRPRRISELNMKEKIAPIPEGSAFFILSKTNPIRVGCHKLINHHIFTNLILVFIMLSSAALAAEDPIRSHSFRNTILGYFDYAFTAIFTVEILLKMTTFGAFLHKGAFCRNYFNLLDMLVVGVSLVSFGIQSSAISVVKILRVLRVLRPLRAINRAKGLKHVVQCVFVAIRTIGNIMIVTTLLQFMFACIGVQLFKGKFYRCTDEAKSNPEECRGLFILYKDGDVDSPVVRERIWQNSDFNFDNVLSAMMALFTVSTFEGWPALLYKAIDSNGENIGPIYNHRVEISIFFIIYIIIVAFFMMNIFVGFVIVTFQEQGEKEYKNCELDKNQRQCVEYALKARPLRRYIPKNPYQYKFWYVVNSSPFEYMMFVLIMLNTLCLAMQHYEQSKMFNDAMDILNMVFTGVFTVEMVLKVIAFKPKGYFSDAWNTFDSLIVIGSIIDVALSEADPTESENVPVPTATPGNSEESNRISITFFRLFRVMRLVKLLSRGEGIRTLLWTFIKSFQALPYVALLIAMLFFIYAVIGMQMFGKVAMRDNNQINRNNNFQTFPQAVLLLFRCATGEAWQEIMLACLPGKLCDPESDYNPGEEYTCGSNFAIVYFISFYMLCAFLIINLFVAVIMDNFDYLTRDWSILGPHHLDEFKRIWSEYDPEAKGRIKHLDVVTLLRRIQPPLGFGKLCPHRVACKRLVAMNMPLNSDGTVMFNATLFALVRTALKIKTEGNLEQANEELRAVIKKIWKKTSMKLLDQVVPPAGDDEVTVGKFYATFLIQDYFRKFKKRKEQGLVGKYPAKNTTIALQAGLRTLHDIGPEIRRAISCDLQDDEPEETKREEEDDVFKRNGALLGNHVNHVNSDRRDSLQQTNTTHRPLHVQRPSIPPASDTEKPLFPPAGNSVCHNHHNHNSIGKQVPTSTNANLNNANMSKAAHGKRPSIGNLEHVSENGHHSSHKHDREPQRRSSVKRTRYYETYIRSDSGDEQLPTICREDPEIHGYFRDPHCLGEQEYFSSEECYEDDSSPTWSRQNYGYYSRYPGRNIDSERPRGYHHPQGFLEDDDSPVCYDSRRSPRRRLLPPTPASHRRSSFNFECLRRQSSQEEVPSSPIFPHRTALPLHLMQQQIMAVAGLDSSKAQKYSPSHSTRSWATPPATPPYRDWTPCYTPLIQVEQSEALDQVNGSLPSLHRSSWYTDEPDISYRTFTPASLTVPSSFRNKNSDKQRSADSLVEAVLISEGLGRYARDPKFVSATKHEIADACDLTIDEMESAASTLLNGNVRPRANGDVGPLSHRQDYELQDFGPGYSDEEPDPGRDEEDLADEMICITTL
Chain of hNav1.2 (Q99250 whole entry): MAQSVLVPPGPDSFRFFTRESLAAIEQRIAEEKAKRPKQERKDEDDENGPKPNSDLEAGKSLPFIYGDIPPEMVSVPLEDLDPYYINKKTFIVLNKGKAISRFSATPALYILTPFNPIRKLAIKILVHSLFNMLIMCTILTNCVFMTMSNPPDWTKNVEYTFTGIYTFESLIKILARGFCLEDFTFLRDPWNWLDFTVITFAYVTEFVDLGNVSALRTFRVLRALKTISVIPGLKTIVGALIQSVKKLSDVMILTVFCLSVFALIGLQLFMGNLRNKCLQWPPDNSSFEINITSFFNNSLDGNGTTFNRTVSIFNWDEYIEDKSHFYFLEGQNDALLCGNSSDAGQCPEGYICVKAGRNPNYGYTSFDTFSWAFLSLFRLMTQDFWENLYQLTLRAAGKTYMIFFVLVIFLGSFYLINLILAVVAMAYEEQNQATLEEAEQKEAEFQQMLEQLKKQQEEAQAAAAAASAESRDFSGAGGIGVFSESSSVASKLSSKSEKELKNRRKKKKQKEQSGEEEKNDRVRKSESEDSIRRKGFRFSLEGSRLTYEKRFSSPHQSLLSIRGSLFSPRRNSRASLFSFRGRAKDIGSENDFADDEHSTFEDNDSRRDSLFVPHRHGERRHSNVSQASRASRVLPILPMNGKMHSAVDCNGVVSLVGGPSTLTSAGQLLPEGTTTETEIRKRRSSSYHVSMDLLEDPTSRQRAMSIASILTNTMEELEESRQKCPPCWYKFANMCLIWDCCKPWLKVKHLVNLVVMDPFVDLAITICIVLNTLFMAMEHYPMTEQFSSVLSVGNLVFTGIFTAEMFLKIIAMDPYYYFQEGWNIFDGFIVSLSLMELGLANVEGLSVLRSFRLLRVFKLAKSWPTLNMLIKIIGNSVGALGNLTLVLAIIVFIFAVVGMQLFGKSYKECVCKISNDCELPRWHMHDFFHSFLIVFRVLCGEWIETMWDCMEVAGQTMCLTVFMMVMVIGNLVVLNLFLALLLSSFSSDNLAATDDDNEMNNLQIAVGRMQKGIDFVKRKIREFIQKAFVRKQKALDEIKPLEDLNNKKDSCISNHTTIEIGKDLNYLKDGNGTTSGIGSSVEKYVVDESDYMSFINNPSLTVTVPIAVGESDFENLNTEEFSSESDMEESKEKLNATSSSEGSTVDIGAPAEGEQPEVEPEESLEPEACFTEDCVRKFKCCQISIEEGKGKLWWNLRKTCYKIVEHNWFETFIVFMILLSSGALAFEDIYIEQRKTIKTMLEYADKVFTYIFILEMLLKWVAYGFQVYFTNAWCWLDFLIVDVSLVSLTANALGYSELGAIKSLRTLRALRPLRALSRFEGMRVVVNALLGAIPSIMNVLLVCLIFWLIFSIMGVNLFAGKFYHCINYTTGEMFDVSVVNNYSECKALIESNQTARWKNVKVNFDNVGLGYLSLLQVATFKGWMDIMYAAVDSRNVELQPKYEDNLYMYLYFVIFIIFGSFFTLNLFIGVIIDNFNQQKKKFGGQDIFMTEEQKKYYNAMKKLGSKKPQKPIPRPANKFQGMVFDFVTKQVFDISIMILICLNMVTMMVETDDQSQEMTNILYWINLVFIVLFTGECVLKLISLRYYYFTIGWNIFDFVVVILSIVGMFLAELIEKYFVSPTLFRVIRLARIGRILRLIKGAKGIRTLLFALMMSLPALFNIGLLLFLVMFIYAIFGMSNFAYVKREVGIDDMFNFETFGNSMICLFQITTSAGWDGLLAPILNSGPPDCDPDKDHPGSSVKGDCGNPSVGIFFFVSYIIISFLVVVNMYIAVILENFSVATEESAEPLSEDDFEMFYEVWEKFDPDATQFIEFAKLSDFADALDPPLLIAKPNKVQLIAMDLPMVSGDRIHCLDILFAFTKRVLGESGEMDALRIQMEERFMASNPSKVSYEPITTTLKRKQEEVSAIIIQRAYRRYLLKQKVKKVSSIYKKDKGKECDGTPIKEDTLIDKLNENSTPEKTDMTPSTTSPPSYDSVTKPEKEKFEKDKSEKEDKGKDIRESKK
Chain of hNav1.2 (Q07699 19-218, further chain): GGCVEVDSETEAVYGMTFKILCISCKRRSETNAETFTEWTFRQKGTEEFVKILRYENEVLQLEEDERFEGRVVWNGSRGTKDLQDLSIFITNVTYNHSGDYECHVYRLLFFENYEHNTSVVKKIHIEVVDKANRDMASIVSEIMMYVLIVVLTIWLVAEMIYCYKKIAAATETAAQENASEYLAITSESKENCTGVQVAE

| Structure (SMILES) | IC50 [1] [µM] | IC50 (hNav1.3) [µM] | IC50 (hNav1.2) [µM] | activity at Cav3.1 (hCav3.1) | activity at Cav1.3 (hCav1.3) | IC50 (hNav1.5) [µM] | IC50 (hNav1.7 [3]) [µM] | IC50 (hNav1.6) [µM] | IC50 (hNav1.8) [µM] | IC50 (hNav1.1) [µM] | ataxia index (number of foot slips/meters travelled) (C57BL/6J mice) | side effects (C57BL/6J mice) | also measured |
| --- | --- | --- | --- | --- | --- | --- | --- | --- | --- | --- | --- | --- | --- |
| CC(C)C[C@H](NC(=O)[C@H](CC(=O)O)NC(=O)[C@H](Cc1ccc(O)cc1)NC(=O)[C@H](CCCCN)NC(=O)[C@@H]1CSSC[C@@H]2NC(=O)[C@H](CCCCN)NC(=O)[C@H](CC(=O)O)NC(=O)[C@H](CC(N)=O)NC(=O)[C@H](CCCCN)NC(=O)[C@@H]3CCCN3C(=O)[C@H](CC(=O)O)NC(=O)[C@@H]3CSSC[C@H](NC(=O)[C@H](CO)NC(=O)[C@H](Cc4ccc(O)cc4)NC(=O)[C@H](CC(N)=O)NC(=O)[C@H](CCCCN)NC(=O)[C@H](CSSC[C@H](NC(=O)[C@@H](N)CC(=O)O)C(=O)N[C@@H](CC(C)C)C(=O)NCC(=O)N[C@@H](Cc4c[nH]c5ccccc45)C(=O)N[C@@H](Cc4ccccc4)C(=O)N[C@@H](CCCCN)C(=O)N[C@@H](CO)C(=O)N3)NC2=O)C(=O)N[C@@H](CO)C(=O)N[C@@H](CCCNC(=N)N)C(=O)N[C@@H](CCCNC(=N)N)C(=O)N[C@@H](CC(=O)O)C(=O)N[C@@H](CCCNC(=N)N)C(=O)N[C@@H](Cc2c[nH]c3ccccc23)C(=O)N1)C(N)=O [Cd1a] (H-DCLGWFKSCDPKNDKCCKNYSCSRRDRWCKYDL-NH2; disulfide 2-17, 9-22, 16-29) | 2.6 | > 30 | 0.13 ± 0.04 | inactive | inactive | > 30 | 3.34 ± 1.56 | > 30 | 6.92 ± 3.44 | 2.18 ± 0.69 | no significant effect | did not produce any apparent side effects | IC50 (hNav1.4): > 30 µM; IC50 at Nav1.4 (hNav1.4): inactive; enhanced recovery from inhibition by strong positive-depolarising pulse (hNav1.7 [2]): ~ 70%; IC50 (hNav1.7 [2]; n = 10, read-out: IC50 at hNav1.7 (peak current)): 0.016 µM; IC50 (hCav3.1): > 30 µM; IC50 (hCav1.3): > 30 µM; IC50 at Nav1.5 (hNav1.5): inactive; IC50 at Nav1.6 (hNav1.6): inactive; paralysis or lethality at 24 h [4]: No signs of paralysis or lethality; recovery from paralysis [4]: all flies fully recovered; IC50 [5]: 3 µM; inhibition at 3 µM ([5]; TS/A, 3 μM, n = 9, read-out: inhibition of rCav2.2 currents): ~50% |
| CC(C)C[C@H](NC(=O)[C@H](CC(=O)O)NC(=O)[C@H](Cc1ccc(O)cc1)NC(=O)[C@H](CCCCN)NC(=O)[C@@H]1CSSC[C@@H]2NC(=O)[C@H](CCCCN)NC(=O)[C@H](CC(=O)O)NC(=O)[C@H](CC(N)=O)NC(=O)[C@H](CCCCN)NC(=O)[C@@H]3CCCN3C(=O)[C@H](CC(=O)O)NC(=O)[C@@H]3CSSC[C@H](NC(=O)[C@H]([C@@H](C)O)NC(=O)[C@H](Cc4ccc(O)cc4)NC(=O)[C@H](CC(N)=O)NC(=O)[C@H](CCCCN)NC(=O)[C@H](CSSC[C@H](NC(=O)[C@@H](N)CC(=O)O)C(=O)N[C@@H](CC(C)C)C(=O)NCC(=O)N[C@@H](Cc4c[nH]c5ccccc45)C(=O)N[C@@H](Cc4ccccc4)C(=O)N[C@@H](CCCCN)C(=O)N[C@@H](CO)C(=O)N3)NC2=O)C(=O)N[C@@H](CO)C(=O)N[C@@H](CCCNC(=N)N)C(=O)N[C@@H](CCCNC(=N)N)C(=O)N[C@@H](CC(=O)O)C(=O)N[C@@H](CCCNC(=N)N)C(=O)N[C@@H](Cc2c[nH]c3ccccc23)C(=O)N1)C(N)=O [Cm1a] (H-DCLGWFKSCDPKNDKCCKNYTCSRRDRWCKYDL-NH2; disulfide 2-17, 9-22, 16-29) | 0.4 ± 0.2 | > 10 | – | inactive | inactive | > 10 | 5.12 ± 2.85 | > 10 | > 10 | 1.06 ± 0.32 | – | did not produce any apparent side effects | IC50 (hNav1.2; read-out: IC50 at Nav1.2): 0.07 µM |
| CC(C)C[C@H](NC(=O)[C@H](Cc1ccc(O)cc1)NC(=O)[C@H](Cc1ccc(O)cc1)NC(=O)[C@H](CCCCN)NC(=O)[C@@H]1CSSC[C@@H]2NC(=O)[C@H](CCCCN)NC(=O)[C@H](CC(=O)O)NC(=O)[C@H](CC(N)=O)NC(=O)[C@H](CCCCN)NC(=O)[C@@H]3CCCN3C(=O)[C@H](CC(=O)O)NC(=O)[C@@H]3CSSC[C@H](NC(=O)[C@H]([C@@H](C)O)NC(=O)[C@H](Cc4ccc(O)cc4)NC(=O)[C@H](CC(N)=O)NC(=O)[C@H](CCCCN)NC(=O)[C@H](CSSC[C@H](NC(=O)[C@@H](N)CC(=O)O)C(=O)N[C@@H](CC(C)C)C(=O)NCC(=O)N[C@@H](Cc4c[nH]c5ccccc45)C(=O)N[C@@H](Cc4ccccc4)C(=O)N[C@@H](CCCCN)C(=O)N[C@@H](CO)C(=O)N3)NC2=O)C(=O)N[C@@H](CO)C(=O)N[C@@H](CCCNC(=N)N)C(=O)N[C@@H](CCCNC(=N)N)C(=O)N[C@@H](CC(=O)O)C(=O)N[C@@H](CCCNC(=N)N)C(=O)N[C@@H](Cc2c[nH]c3ccccc23)C(=O)N1)C(N)=O [Cm1b] (H-DCLGWFKSCDPKNDKCCKNYTCSRRDRWCKYYL-NH2; disulfide 2-17, 9-22, 16-29) | 1.1 ± 0.6 | 5.57 ± 0.04 | 0.08 ± 0.02 | inactive | inactive | > 10 | 0.23 ± 0.13 | 3.99 ± 1.6 | > 10 | 0.17 ± 0.11 | – | did not produce any apparent side effects | – |
| NC1=N[C@H](O)[C@H]2[C@H]3O[C@]4(O)O[C@@H]([C@@H](O)[C@@]2(N1)[C@@H]4O)[C@]3(O)CO [TTX, tetrodotoxin] | – | – | – | – | – | – | – | – | – | – | significantly increased the ataxia index (*p < 0.05) | – | reversal of OD1-evoked pain behaviours [6]: fully reversed |

From PMC5589098 (PLoS ONE, 2017)
